Laboratory results reported in patent US20090085008A1, “Cellulose compound composition and cellulose compound film” (FUJIFILM Corporation, priority 2005, published 2009).

Assay: Solubility in mixture solvent methylene chloride:methanol = 87:13
Assay type: physicochemical
Conditions: Methylene chloride:Methanol = 87:13 (mass ratio)
Method: A test was conducted to evaluate the solubility of the compound represented by formula (1) or (2), which can be used in the present invention, in a halogen-containing mixture solution.

Solubility: 1%
SMILES: COc1cc(OC)c(C(=O)Oc2ccc(C(=O)Oc3ccc(-c4ccc(OC(=O)c5ccc(OC(=O)c6cc(OC)c(OC)cc6OC)cc5)cc4)cc3)cc2)cc1OC [Analogous compound]
